Experiments:
[1] = target: T1, BRK (PTK6 protein tyrosine kinase 6) (Homo sapiens, UniProt Q13882); experiment: BRK (PTK6 protein tyrosine kinase 6) IC50 determination assay (in vitro kinase assay, ADP-Glo Max); type: biochemical; conditions: ATP 1600 uM (Km), Poly(Glu, Tyr) 160 uM, 75 nM PTK6, 45 min, RT
T1 construct: purchased Carna Bioscience 08-165
Experimental: BRK (PTK6 Protein Tyrosine Kinase 6) IC50 Determination Assay
In vitro kinase assay used to determine IC50 values for tested inhibitors is based on a modified ADP-Glo™ Max Assay system (Promega) and consists of two parts:
1. Kinase reaction—performed in optimized conditions. At this step BRK phosphorylates its substrate Poly(Glu, Tyr) sodium salt [Glu:Tyr (4:1)] using ATP as a source of phosphate to produce phosphorylated substrate and ADP. Reaction is performed at Km values for ATP and substrate using optimized buffer composition and time of the reaction. BRK (PTK6 protein tyrosine kinase 6) used in the experiments is commercially available (Carna Bioscience, cat. No. 08-165).
2. Detection of ADP as a product of the reaction using ADP-Glo™ system. This part is conducted by using the commercially available kit ADP-Glo™ Max Assay (Promega, cat. No. V7001) according to manufacturer's instruction. Reproducibility and reliability of this modification is confirmed in an optimization process.
Test compounds are dissolved in DMSO and then transferred to the V-bottom 96-well plate.
Two mixes are prepared on ice: Mix 1—containing appropriate kinase amount in 2× reaction buffer and Mix 2—containing concentrated substrate (Poly(Glu, Tyr) sodium salt) and ATP in MilliQ water. 15 μL per well of Mix 1 is transferred to assay wells of 96-well white plate. Next, 2 μl of 15× concentrated test compound in DMSO is added to Mix 1 for 20 min pre-incubation, followed by addition of Mix 2 (13 μl/well). Total reaction volume is 30 μL per well. Samples are tested in duplicates. Final concentration of DMSO in the reaction is 6.7%. Conditions needed for performing BRK in vitro kinase assay are given below:
This protocol is based on Technical Bulletin, ADP-Glo™ Kinase Assay (Promega) and is adapted to 96-well plate containing 30 μL reaction mixture. 30 μL of ADP-Glo™ Reagent is added to each well of 96-well plate containing 30 μL of reaction mixture. The plate is incubated for 90 minutes on a shaker at RT. 60 μL of ADP-Glo™ Max Detection Solution is added to each well of 96-well plate containing 60 μL of the solution (ratio of kinase reaction volume to ADP-Glo™ Reagent volume to Kinase Detection Solution volume is maintained at […]). Plate is incubated for 40 minutes on a shaker at RT, protected from light. Luminescence is measured in the plate reader Synergy 2 (BioTek). Luminescent readouts for compounds tested in 8 concentrations (routinely from 66.7 μM in 5-fold serial dilution step) in duplicates, as well as for high control (complete reaction mix w/DMSO vehicle control), are first normalized to no-substrate low control by its subtraction. In the next step, % of normalized positive control is calculated for each data point and plotted against test compound concentration:
% of control—percent of positive control normalized to no-substrate negative control Lumcpd—luminescence of test compound Lumneg—luminescence of no-substrate negative control Lumpos—luminescence of positive control
IC50 parameter is determined by the GraphPad Prism 6.0 software using 4-parameter model.

[2] = target: T2, Human recombinant His-tagged PFKFB3 (Homo sapiens, UniProt Q16875); experiment: PFKFB3 IC50 determination assay (in vitro kinase assay, modified ADP-Glo system); type: biochemical; conditions: ADP-Glo; ATP 20 μM (Km), fructose-6-phosphate 2 μM (Km), 25 nM PFKFB3, 2 h, rt; read-out: PFKFB3 IC50
T2 construct: His; made in house
T2 sequence (Q16875 whole entry): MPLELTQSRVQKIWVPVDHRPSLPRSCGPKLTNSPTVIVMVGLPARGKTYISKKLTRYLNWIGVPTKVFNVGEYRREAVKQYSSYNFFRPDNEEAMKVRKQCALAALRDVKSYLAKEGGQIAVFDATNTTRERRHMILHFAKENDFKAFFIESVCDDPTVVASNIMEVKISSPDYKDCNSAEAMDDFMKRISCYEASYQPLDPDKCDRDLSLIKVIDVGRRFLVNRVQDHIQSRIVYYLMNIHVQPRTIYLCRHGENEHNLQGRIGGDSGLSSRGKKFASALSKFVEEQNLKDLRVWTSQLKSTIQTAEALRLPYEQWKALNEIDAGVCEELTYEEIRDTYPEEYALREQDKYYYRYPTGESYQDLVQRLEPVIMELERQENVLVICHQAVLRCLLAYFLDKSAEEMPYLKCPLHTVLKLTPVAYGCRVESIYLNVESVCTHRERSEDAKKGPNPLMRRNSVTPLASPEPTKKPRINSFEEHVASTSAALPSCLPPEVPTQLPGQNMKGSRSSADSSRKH

T1 sequence (Q13882 whole entry): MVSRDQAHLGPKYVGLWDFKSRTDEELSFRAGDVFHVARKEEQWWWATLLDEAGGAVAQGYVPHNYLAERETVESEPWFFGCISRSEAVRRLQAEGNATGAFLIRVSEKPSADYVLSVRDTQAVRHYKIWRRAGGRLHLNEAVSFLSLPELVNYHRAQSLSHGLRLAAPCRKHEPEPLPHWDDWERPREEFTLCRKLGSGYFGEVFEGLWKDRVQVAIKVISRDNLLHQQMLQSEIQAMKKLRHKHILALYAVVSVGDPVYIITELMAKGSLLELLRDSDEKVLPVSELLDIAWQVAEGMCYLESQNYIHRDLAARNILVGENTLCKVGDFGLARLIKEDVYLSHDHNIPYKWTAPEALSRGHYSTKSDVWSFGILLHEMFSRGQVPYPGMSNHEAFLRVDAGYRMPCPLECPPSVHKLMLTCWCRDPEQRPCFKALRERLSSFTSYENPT

IC50 [1] [nM] | IC50 [2] [nM] | Molecule
10000 to 100000 | 1 to 1000 | 4-{[8-(1-Methyl-1H-indol-6-yl)quinoxalin-6-yl]amino}piperidin-2-one [Example 45]
1 to 1000 | 1000 to 10000 | CC(Nc1cc(-c2ccc3ccn(C)c3c2)c2nccnc2c1)c1cccc(S(N)(=O)=O)c1 (stereo not drawn) [Example 28]
10000 to 100000 | 1 to 1000 | Cc1cnc2c(-c3ccc4ccn(C)c4c3)cc(NC(C)c3cccnc3)cc2n1 (stereo not drawn) [Example 34]
1000 to 10000 | 1 to 1000 | C[C@@H](Nc1cc(-c2ccc3ccn(C)c3c2)c2nccnc2c1)c1cccnc1 [Example 35]
1000 to 10000 | 10000 to 100000 | Cn1ccc2ccc(-c3cc(NC(=CC(=O)O)c4cccnc4)cc4nccnc34)cc21 [Example 62]
1000 to 10000 | 10000 to 100000 | CC(=O)N1CCc2ccc(-c3cc(NC(C)c4cccnc4)cc4nccnc34)cc21 (stereo not drawn) [Example 64]
1000 to 10000 | 10000 to 100000 | CC(Nc1cc(N2CC3CCCC3C2)c2nccnc2c1)c1cccnc1 (stereo not drawn) [Example 65]
1 to 1000 | 1 to 1000 | Cn1ccc2ccc(-c3cc(NC4CCOCC4)cc4nccnc34)cc21 [Example 66]
1 to 1000 | 1 to 1000 | Cn1cc(-c2cncc(CNc3cc(-c4ccc5ccn(C)c5c4)c4nccnc4c3)c2)cn1 [Example 69, 8-(1-Methyl-1H-indol-6-yl)-N-{[5-(1-methyl-1H-pyrazol-4-yl)pyridin-3-yl]methyl}quinoxalin-6-amine]
1 to 1000 | 1000 to 10000 | Cn1ccc2ccc(-c3cc(NCc4ccc(C#N)cc4)cc4nccnc34)cc21 [Example 70]
1 to 1000 | 1000 to 10000 | Cn1ccc2ccc(-c3cc(NCc4cccc(C#N)c4)cc4nccnc34)cc21 [Example 71]
1 to 1000 | 1 to 1000 | Cn1ccc2ccc(-c3cc(NCc4cncc(-n5ccnc5)c4)cc4nccnc34)cc21 [Example 72]
1 to 1000 | 1000 to 10000 | Cn1ccc2ccc(-c3cc(NCc4cncc(-c5cnc(N)nc5)c4)cc4nccnc34)cc21 [Example 73]
1000 to 10000 | 10000 to 100000 | Cn1ccc2ccc(-c3cc(NCc4ccc(N)cc4)cc4nccnc34)cc21 [Example 75]
10000 to 100000 | 1 to 1000 | Cn1ccc2ccc(-c3cc(NC(C)(C)c4cccnc4)cc4nccnc34)cc21 [Example 81]
1000 to 10000 | 10000 to 100000 | CC(Nc1cc(-c2ccc3c(ccn3C)c2)c2nccnc2c1)c1cccnc1 (stereo not drawn) [Example 82]
1 to 1000 | 1000 to 10000 | COc1ncccc1CNc1cc(-c2ccc3ccn(C)c3c2)c2nccnc2c1 [Example 86]
1 to 1000 | 1000 to 10000 | Cn1ccc2ccc(-c3cc(NCc4ccc[nH]c4=O)cc4nccnc34)cc21 [Example 87]
1 to 1000 | 1000 to 10000 | Cn1ccc2ccc(-c3cc(NCc4ccc(C(N)=O)cc4)cc4nccnc34)cc21 [Example 88]
1000 to 10000 | 1000 to 10000 | CC(Nc1cc(-c2cccc3c2ccn3C)c2nccnc2c1)c1cccnc1 (stereo not drawn) [Example 93]
1000 to 10000 | 1000 to 10000 | Cn1ccc2ccc(-c3cc(NC4CCNCC4)cc4nccnc34)cc21 [Example 97]
1 to 1000 | 1000 to 10000 | Cn1ccc2ccc(-c3cc(NCc4cncc(N)c4)cc4nccnc34)cc21 [Example 100]
1000 to 10000 | 1 to 1000 | Cn1ccc2ccc(-c3cc(NC(c4cccnc4)C4CCOCC4)cc4nccnc34)cc21 (stereo not drawn) [Example 115]

IC50 [1] [nM] | IC50 [2] [nM] | Molecule
1 to 1000 | 1 to 1000 | Cn1ccc2ccc(-c3cc(NC4CCOc5cccnc54)cc4nccnc34)cc21 (stereo not drawn) [Example 119]
1000 to 10000 | 10000 to 100000 | CC(=O)N1CCCCC1CNc1cc(-c2ccc3c(ccn3C)c2)c2nccnc2c1 (stereo not drawn) [Example 120]
1 to 1000 | 1000 to 10000 | Cn1ccc2ccc(-c3cc(NCc4cnc(N)nc4)cc4nccnc34)cc21 [Example 121]
1000 to 10000 | 1 to 1000 | Cc1coc2ccc(-c3cc(NCc4cncc(-c5cnn(C)c5)c4)cc4nccnc34)cc12 [Example 122]
1 to 1000 | 1 to 1000 | CC(=O)N1CCC(C(Nc2cc(-c3ccc4ccn(C)c4c3)c3nccnc3c2)c2cccnc2)CC1 (stereo not drawn) [Example 123]
1 to 1000 | 1000 to 10000 | Cn1ccc2ccc(-c3cc(NCc4ccc5nccn5c4)cc4nccnc34)cc21 [Example 128]
1 to 1000 | 1000 to 10000 | Cn1ccc2ccc(-c3cc(NCC4COCCN4)cc4nccnc34)cc21 (stereo not drawn) [Example 131]
1 to 1000 | 1 to 1000 | CN1CCC(Nc2cc(-c3ccc4ccn(C)c4c3)c3nccnc3c2)CC1=O (stereo not drawn) [Example 132]
1 to 1000 | 1000 to 10000 | CN1CC(Nc2cc(-c3ccc4ccn(C)c4c3)c3nccnc3c2)CCC1=O (stereo not drawn) [Example 133]
1 to 1000 | 1000 to 10000 | Cn1ccc2ccc(-c3cc(NCc4ccnc(Br)c4)cc4nccnc34)cc21 [Example 137]
1 to 1000 | 1 to 1000 | Cn1nncc1CNc1cc(-c2ccc3ccn(C)c3c2)c2nccnc2c1 [Example 243]
1 to 1000 | 1 to 1000 | CCCC(=O)N1CCC(C(Nc2cc(-c3ccc4ccn(C)c4c3)c3nccnc3c2)c2cccnc2)CC1 (stereo not drawn) [Example 248]
1 to 1000 | 1 to 1000 | CC(=O)N1CCCC(C(Nc2cc(-c3ccc4ccn(C)c4c3)c3nccnc3c2)c2cccnc2)C1 (stereo not drawn) [Example 250]
1000 to 10000 | 1 to 1000 | Cn1ccc2ccc(-c3cc(N[C@@H]4CCCc5ccccc54)cc4nccnc34)cc21 [compound 1, 8-(1-methyl-1H-indol-6-yl)-N-[(1R)-1,2,3,4-tetrahydronaphthalen-1-yl]quinoxalin-6-amine]
1 to 1000 | 1000 to 10000 | Cn1ccc2ccc(-c3cc(NCCc4cccnc4)cc4nccnc34)cc21 [compound 3, 8-(1-methyl-1H-indol-6-yl)-N-[2-(pyridin-3-yl)ethyl]quinoxalin-6-amine]
1 to 1000 | 1 to 1000 | CC(Nc1cc(-c2ccc3ccn(C)c3c2)c2nccnc2c1)c1ccncc1 (stereo not drawn) [compound 4, 8-(1-methyl-1H-indol-6-yl)-N-[1-(pyridin-4-yl)ethyl]quinoxalin-6-amine]
1 to 1000 | 1000 to 10000 | CC(Nc1cc(-c2ccc3ccn(C)c3c2)c2nccnc2c1)c1ccccn1 (stereo not drawn) [compound 5, 8-(1-methyl-1H-indol-6-yl)-N-[1-(pyridin-2-yl)ethyl]quinoxalin-6-amine]
10000 to 100000 | 1000 to 10000 | Cn1cnc2ccc(-c3cc(N[C@@H]4CCCc5ccccc54)cc4nccnc34)cc21 [compound 8, 8-(1-methyl-1H-1,3-benzodiazol-6-yl)-N-[(1R)-1,2,3,4-tetrahydronaphthalen-1-yl]quinoxalin-6-amine]
1 to 1000 | 1 to 1000 | Cn1ccc2ccc(-c3cc(NCc4cccnc4)cc4nccnc34)cc21 [compound 10, 8-(1-methyl-1H-indol-6-yl)-N-(pyridin-3-ylmethyl)quinoxalin-6-amine]
1000 to 10000 | 1000 to 10000 | COc1cccc([C@@H](C)Nc2cc(-c3ccc4ccn(C)c4c3)c3nccnc3c2)c1 [compound 11, N-[(1R)-1-(3-methoxyphenyl)ethyl]-8-(1-methyl-1H-indol-6-yl)quinoxalin-6-amine]
1000 to 10000 | 1000 to 10000 | COc1cc(-c2cc(N[C@@H]3CCCc4ccccc43)cc3nccnc23)ccc1N [compound 12, 8-(4-amino-3-methoxyphenyl)-N-[(1R)-1,2,3,4-tetrahydronaphthalen-1-yl]quinoxalin-6-amine]
1000 to 10000 | 1 to 1000 | Cn1ccc2ccc(-c3cc(NC4CCOc5ccccc54)cc4nccnc34)cc21 (stereo not drawn) [compound 14, N-(3,4-dihydro-2H-1-benzopyran-4-yl)-8-(1-methyl-1H-indol-6-yl)quinoxalin-6-amine]
